From ChEMBL document CHEMBL3885881, “DrugMatrix”

Columns and labels:
[1] = species on record: Rattus norvegicus; format: toxicity, organism-based, Sprague-Dawley; conditions: in vivo, po, 1868 mg/kg, 24 h, route oral GAVAGE, dose level High, time 1 day, vehicle .5 % CMC
Description: DrugMatrix - Regimen: Single

[2] = species on record: Rattus norvegicus; test: DrugMatrix - Regimen: Daily Repeat; format: toxicity, organism-based, Sprague-Dawley; parameters: regimen Daily Repeat, gender Male, age 6-8 weeks; conditions: in vivo, po, 1868 mg/kg, route oral GAVAGE, dose level High, vehicle .5 % CMC
[3] = 72 h, tissue Plasma, time 3 day
[4] = 120 h, tissue Blood, time 5 day

CC(=O)OCc1ccccc1 [E1501]
ABSOLUTE EOSINOPHIL ([1]; tissue Blood): 109.33 CELLS/uL | ABSOLUTE LYMPHOCYTE ([1]; tissue Blood): 12916.67 CELLS/uL | ABSOLUTE MONOCYTE ([1]; tissue Blood): 245.33 CELLS/uL | ABSOLUTE SEGMENTED NEUTROPHIL ([1]; tissue Blood): 1062 CELLS/uL | BASOPHIL ([1]; tissue Blood): 0% | EOSINOPHIL ([1]; tissue Blood): 0.67% | ERYTHROCYTE COUNT ([1]; tissue Blood): 5.87 x10E6/uL | HEMATOCRIT ([1]; tissue Blood): 35.33% | HEMOGLOBIN ([1]; tissue Blood): 12.87 G/DL | LEUKOCYTE COUNT ([1]; tissue Blood): 14.33 x10E3/uL | LYMPHOCYTE ([1]; tissue Blood): 90.67% | MEAN CORPUSCULAR HEMOGLOBIN ([1]; tissue Blood): 21.93 pg | MEAN CORPUSCULAR HEMOGLOBIN CONCENTRATION ([1]; tissue Blood): 36.4 G/DL | MEAN CORPUSCULAR VOLUME ([1]; tissue Blood): 60.27 fL | MONOCYTE ([1]; tissue Blood): 1.67% | NEUTROPHIL ([1]; tissue Blood): 7% | NUCLEATED RED BLOOD CELLS ([1]; tissue Blood): 0 /100WBC | PLATELET COUNT ([1]; tissue Blood): 831 x10E3/uL | ALANINE AMINOTRANSFERASE ([1]; tissue Plasma): 51 u/L | ALBUMIN ([1]; tissue Plasma): 4.13 G/DL | ALKALINE PHOSPHATASE ([1]; tissue Plasma): 348.67 u/L | ASPARTATE AMINOTRANSFERASE ([1]; tissue Plasma): 87 u/L | BLOOD UREA NITROGEN ([1]; tissue Plasma): 12.33 mg/dL | CARBON DIOXIDE ([1]; tissue Plasma): 26 mmol/L | CHLORIDE ([1]; tissue Plasma): 101.67 MEQ/L | CHOLESTEROL ([1]; tissue Plasma): 53 mg/dL | CREATININE ([1]; tissue Plasma): 0.24 mg/dL | GLUCOSE ([1]; tissue Plasma): 189 mg/dL | LACTATE DEHYDROGENASE ([1]; tissue Plasma): 338.67 u/L | LIPASE ([1]; tissue Plasma): 10 u/L | PHOSPHORUS ([1]; tissue Plasma): 14.53 mg/dL | POTASSIUM ([1]; tissue Plasma): 6.76 MEQ/L | SODIUM ([1]; tissue Plasma): 145.77 MEQ/L | TOTAL BILIRUBIN ([1]; tissue Plasma): 0.13 mg/dL | TOTAL PROTEIN ([1]; tissue Plasma): 6.1 G/DL | URIC ACID ([1]; tissue Plasma): 2.13 mg/dL | ABSOLUTE BASOPHIL ([2]; 72 h, tissue Blood, time 3 day): 0 CELLS/uL | ABSOLUTE EOSINOPHIL ([2]; 72 h, tissue Blood, time 3 day): 53 CELLS/uL | ABSOLUTE LYMPHOCYTE ([2]; 72 h, tissue Blood, time 3 day): 16547 CELLS/uL | ABSOLUTE MONOCYTE ([2]; 72 h, tissue Blood, time 3 day): 404 CELLS/uL | ABSOLUTE SEGMENTED NEUTROPHIL ([2]; 72 h, tissue Blood, time 3 day): 3196 CELLS/uL | BASOPHIL ([2]; 72 h, tissue Blood, time 3 day): 0% | EOSINOPHIL ([2]; 72 h, tissue Blood, time 3 day): 0.5% | ERYTHROCYTE COUNT ([2]; 72 h, tissue Blood, time 3 day): 6.19 x10E6/uL | HEMATOCRIT ([2]; 72 h, tissue Blood, time 3 day): 37.45% | HEMOGLOBIN ([2]; 72 h, tissue Blood, time 3 day): 13.25 G/DL | LEUKOCYTE COUNT ([2]; 72 h, tissue Blood, time 3 day): 20.2 x10E3/uL | LYMPHOCYTE ([2]; 72 h, tissue Blood, time 3 day): 75.5% | MEAN CORPUSCULAR HEMOGLOBIN ([2]; 72 h, tissue Blood, time 3 day): 21.45 pg | MEAN CORPUSCULAR HEMOGLOBIN CONCENTRATION ([2]; 72 h, tissue Blood, time 3 day): 35.4 G/DL | MEAN CORPUSCULAR VOLUME ([2]; 72 h, tissue Blood, time 3 day): 60.6 fL | MONOCYTE ([2]; 72 h, tissue Blood, time 3 day): 2% | NEUTROPHIL ([2]; 72 h, tissue Blood, time 3 day): 22% | NUCLEATED RED BLOOD CELLS ([2]; 72 h, tissue Blood, time 3 day): 0 /100WBC | PLATELET COUNT ([2]; 72 h, tissue Blood, time 3 day): 1224 x10E3/uL | ALANINE AMINOTRANSFERASE [2, 3]: 60 u/L | ALBUMIN [2, 3]: 4.7 G/DL | ALKALINE PHOSPHATASE [2, 3]: 462 u/L | ASPARTATE AMINOTRANSFERASE [2, 3]: 177 u/L | BLOOD UREA NITROGEN [2, 3]: 54 mg/dL | CARBON DIOXIDE [2, 3]: 24 mmol/L | CHLORIDE [2, 3]: 92.5 MEQ/L | CHOLESTEROL [2, 3]: 57 mg/dL | CREATININE [2, 3]: 0.49 mg/dL | GLUCOSE [2, 3]: 276 mg/dL | LACTATE DEHYDROGENASE [2, 3]: 270.5 u/L | LIPASE [2, 3]: 9.5 u/L | PHOSPHORUS [2, 3]: 16.1 mg/dL | POTASSIUM [2, 3]: 5.06 MEQ/L | SODIUM [2, 3]: 143.6 MEQ/L | TOTAL BILIRUBIN [2, 3]: 0.25 mg/dL | TOTAL PROTEIN [2, 3]: 7 G/DL | URIC ACID [2, 3]: 2 mg/dL | ABSOLUTE BASOPHIL [2, 4]: 0 CELLS/uL | ABSOLUTE EOSINOPHIL [2, 4]: 243.33 CELLS/uL | ABSOLUTE LYMPHOCYTE [2, 4]: 9225.33 CELLS/uL | ABSOLUTE MONOCYTE [2, 4]: 248.33 CELLS/uL | ABSOLUTE SEGMENTED NEUTROPHIL [2, 4]: 783 CELLS/uL | BASOPHIL [2, 4]: 0% | EOSINOPHIL [2, 4]: 2.33% | ERYTHROCYTE COUNT [2, 4]: 6.51 x10E6/uL | HEMATOCRIT [2, 4]: 38.67% | HEMOGLOBIN [2, 4]: 14.03 G/DL | LEUKOCYTE COUNT [2, 4]: 10.5 x10E3/uL | LYMPHOCYTE [2, 4]: 88% | MEAN CORPUSCULAR HEMOGLOBIN [2, 4]: 21.53 pg | MEAN CORPUSCULAR HEMOGLOBIN CONCENTRATION [2, 4]: 36.3 G/DL | MEAN CORPUSCULAR VOLUME [2, 4]: 59.37 fL | MONOCYTE [2, 4]: 2.33% | NEUTROPHIL [2, 4]: 7.33% | NUCLEATED RED BLOOD CELLS [2, 4]: 0 /100WBC
